Source: the CheMixHub ionic liquid set
± gives the uncertainty stated by the source.

Experiment: xn = mol fraction of the nth substance listed
Conditions: 100 kPa

## CC[n+]1ccn(C)c1.O=C([O-])C(F)(F)F + OCCN(CCO)CCO
293.15 K, x1 = 0.006
  viscosity: 878 ± 37 mPa·s
293.15 K, x1 = 0.007
  viscosity: 871 ± 36 mPa·s
293.15 K, x2 = 0.393
  viscosity: 76.3 ± 1.9 mPa·s
293.15 K, x2 = 0.501
  viscosity: 98.1 ± 2.6 mPa·s
293.15 K, x2 = 0.6
  viscosity: 135.1 ± 3.8 mPa·s
293.15 K, x2 = 0.692
  viscosity: 190.6 ± 5.7 mPa·s
293.15 K, x2 = 0.778
  viscosity: 279.5 ± 9 mPa·s
293.15 K, x2 = 0.857
  viscosity: 413 ± 15 mPa·s
293.15 K, x2 = 0.931
  viscosity: 621 ± 24 mPa·s
293.15 K, x2 = 0.966
  viscosity: 751 ± 30 mPa·s
293.15 K, x2 = 0.98
  viscosity: 775 ± 32 mPa·s
298.15 K, x1 = 0.006
  electrical conductivity: 0.00085 ± 3e-05 S/m
  viscosity: 581 ± 22 mPa·s
298.15 K, x1 = 0.007
  electrical conductivity: 0.00084 ± 3e-05 S/m
  viscosity: 576 ± 22 mPa·s
298.15 K, x2 = 0.393
  electrical conductivity: 0.423 ± 0.017 S/m
  viscosity: 60 ± 1.4 mPa·s
298.15 K, x2 = 0.501
  electrical conductivity: 0.287 ± 0.012 S/m
  viscosity: 75.4 ± 1.9 mPa·s
298.15 K, x2 = 0.6
  electrical conductivity: 0.182 ± 0.008 S/m
  viscosity: 101 ± 2.7 mPa·s
298.15 K, x2 = 0.692
  electrical conductivity: 0.109 ± 0.005 S/m
  viscosity: 139 ± 3.9 mPa·s
298.15 K, x2 = 0.778
  electrical conductivity: 0.061 ± 0.003 S/m
  viscosity: 198.3 ± 5.8 mPa·s
298.15 K, x2 = 0.857
  electrical conductivity: 0.0281 ± 0.0012 S/m
  viscosity: 284.7 ± 9.1 mPa·s
298.15 K, x2 = 0.931
  electrical conductivity: 0.0095 ± 0.0004 S/m
  viscosity: 419 ± 15 mPa·s
298.15 K, x2 = 0.966
  electrical conductivity: 0.00397 ± 0.00017 S/m
  viscosity: 501 ± 18 mPa·s
298.15 K, x2 = 0.98
  electrical conductivity: 0.0025 ± 0.0001 S/m
  viscosity: 518 ± 19 mPa·s
303.15 K, x1 = 0.006
  viscosity: 395 ± 14 mPa·s
303.15 K, x1 = 0.007
  viscosity: 392 ± 13 mPa·s
303.15 K, x2 = 0.393
  viscosity: 47.9 ± 1.1 mPa·s
303.15 K, x2 = 0.501
  viscosity: 59 ± 1.4 mPa·s
303.15 K, x2 = 0.6
  viscosity: 77 ± 1.9 mPa·s
303.15 K, x2 = 0.692
  viscosity: 103.5 ± 2.7 mPa·s
303.15 K, x2 = 0.778
  viscosity: 143.8 ± 3.9 mPa·s
303.15 K, x2 = 0.857
  viscosity: 201.3 ± 5.8 mPa·s
303.15 K, x2 = 0.931
  viscosity: 289.4 ± 9.1 mPa·s
303.15 K, x2 = 0.966
  viscosity: 344 ± 11 mPa·s
303.15 K, x2 = 0.98
  viscosity: 354 ± 12 mPa·s
313.15 K, x1 = 0.006
  electrical conductivity: 0.0024 ± 0.0001 S/m
  viscosity: 197.6 ± 5.7 mPa·s
313.15 K, x1 = 0.007
  electrical conductivity: 0.00237 ± 0.0001 S/m
  viscosity: 196.1 ± 5.6 mPa·s
313.15 K, x2 = 0.393
  electrical conductivity: 0.76 ± 0.03 S/m
  viscosity: 32 ± 0.8 mPa·s
313.15 K, x2 = 0.501
  electrical conductivity: 0.54 ± 0.02 S/m
  viscosity: 38.1 ± 0.9 mPa·s
313.15 K, x2 = 0.6
  electrical conductivity: 0.37 ± 0.016 S/m
  viscosity: 47.7 ± 1.2 mPa·s
313.15 K, x2 = 0.692
  electrical conductivity: 0.237 ± 0.01 S/m
  viscosity: 61.2 ± 1.5 mPa·s
313.15 K, x2 = 0.778
  electrical conductivity: 0.143 ± 0.006 S/m
  viscosity: 81.2 ± 2 mPa·s
313.15 K, x2 = 0.857
  electrical conductivity: 0.07 ± 0.003 S/m
  viscosity: 108.7 ± 2.7 mPa·s
313.15 K, x2 = 0.931
  electrical conductivity: 0.0268 ± 0.0011 S/m
  viscosity: 149.9 ± 4 mPa·s
313.15 K, x2 = 0.966
  electrical conductivity: 0.0113 ± 0.0005 S/m
  viscosity: 174.6 ± 4.9 mPa·s
313.15 K, x2 = 0.98
  electrical conductivity: 0.007 ± 0.0003 S/m
  viscosity: 179.3 ± 5 mPa·s

## CC[n+]1ccn(C)c1.O=C([O-])C(F)(F)F + OCCO
293.15 K, x1 = 0.001
  viscosity: 20.8 ± 0.4 mPa·s
293.15 K, x1 = 0.003
  viscosity: 20.8 ± 0.4 mPa·s
293.15 K, x1 = 0.009
  viscosity: 20.6 ± 0.4 mPa·s
293.15 K, x1 = 0.015
  viscosity: 20.5 ± 0.4 mPa·s
293.15 K, x2 = 0.489
  viscosity: 20.6 ± 0.5 mPa·s
293.15 K, x2 = 0.602
  viscosity: 18.4 ± 0.4 mPa·s
293.15 K, x2 = 0.71
  viscosity: 17.2 ± 0.4 mPa·s
293.15 K, x2 = 0.783
  viscosity: 17.2 ± 0.4 mPa·s
293.15 K, x2 = 0.843
  viscosity: 17.6 ± 0.4 mPa·s
293.15 K, x2 = 0.894
  viscosity: 18.4 ± 0.4 mPa·s
293.15 K, x2 = 0.934
  viscosity: 19.3 ± 0.4 mPa·s
293.15 K, x2 = 0.97
  viscosity: 20.2 ± 0.4 mPa·s
298.15 K, x1 = 0.001
  electrical conductivity: 0.0126 ± 0.0005 S/m
  viscosity: 16.9 ± 0.4 mPa·s
298.15 K, x1 = 0.003
  electrical conductivity: 0.0278 ± 0.0011 S/m
  viscosity: 16.8 ± 0.4 mPa·s
298.15 K, x1 = 0.009
  electrical conductivity: 0.065 ± 0.003 S/m
  viscosity: 16.7 ± 0.4 mPa·s
298.15 K, x1 = 0.015
  electrical conductivity: 0.106 ± 0.004 S/m
  viscosity: 16.6 ± 0.4 mPa·s
298.15 K, x2 = 0.489
  electrical conductivity: 1.36 ± 0.05 S/m
  viscosity: 17.5 ± 0.4 mPa·s
298.15 K, x2 = 0.602
  electrical conductivity: 1.48 ± 0.06 S/m
  viscosity: 15.5 ± 0.3 mPa·s
298.15 K, x2 = 0.71
  electrical conductivity: 1.33 ± 0.05 S/m
  viscosity: 14.5 ± 0.3 mPa·s
298.15 K, x2 = 0.783
  electrical conductivity: 1.11 ± 0.05 S/m
  viscosity: 14.3 ± 0.3 mPa·s
298.15 K, x2 = 0.843
  electrical conductivity: 0.89 ± 0.04 S/m
  viscosity: 14.6 ± 0.3 mPa·s
298.15 K, x2 = 0.894
  electrical conductivity: 0.63 ± 0.03 S/m
  viscosity: 15.1 ± 0.3 mPa·s
298.15 K, x2 = 0.934
  electrical conductivity: 0.415 ± 0.017 S/m
  viscosity: 15.8 ± 0.3 mPa·s
298.15 K, x2 = 0.97
  electrical conductivity: 0.2 ± 0.008 S/m
  viscosity: 16.4 ± 0.3 mPa·s
303.15 K, x1 = 0.001
  viscosity: 13.8 ± 0.3 mPa·s
303.15 K, x1 = 0.003
  viscosity: 13.8 ± 0.3 mPa·s
303.15 K, x1 = 0.009
  viscosity: 13.7 ± 0.3 mPa·s
303.15 K, x1 = 0.015
  viscosity: 13.7 ± 0.3 mPa·s
303.15 K, x2 = 0.489
  viscosity: 14.9 ± 0.3 mPa·s
303.15 K, x2 = 0.602
  viscosity: 13.2 ± 0.3 mPa·s
303.15 K, x2 = 0.71
  viscosity: 12.3 ± 0.3 mPa·s
303.15 K, x2 = 0.783
  viscosity: 12.1 ± 0.3 mPa·s
303.15 K, x2 = 0.843
  viscosity: 12.2 ± 0.3 mPa·s
303.15 K, x2 = 0.894
  viscosity: 12.5 ± 0.3 mPa·s
303.15 K, x2 = 0.934
  viscosity: 13 ± 0.3 mPa·s
303.15 K, x2 = 0.97
  viscosity: 13.5 ± 0.3 mPa·s
313.15 K, x1 = 0.001
  electrical conductivity: 0.0215 ± 0.0009 S/m
  viscosity: 9.56 ± 0.2 mPa·s
313.15 K, x1 = 0.003
  electrical conductivity: 0.0473 ± 0.0019 S/m
  viscosity: 9.54 ± 0.2 mPa·s
313.15 K, x1 = 0.009
  electrical conductivity: 0.111 ± 0.005 S/m
  viscosity: 9.53 ± 0.2 mPa·s
313.15 K, x1 = 0.015
  electrical conductivity: 0.18 ± 0.007 S/m
  viscosity: 9.49 ± 0.2 mPa·s
313.15 K, x2 = 0.489
  electrical conductivity: 2.23 ± 0.09 S/m
  viscosity: 11.1 ± 0.3 mPa·s
313.15 K, x2 = 0.602
  electrical conductivity: 2.25 ± 0.09 S/m
  viscosity: 9.84 ± 0.21 mPa·s
313.15 K, x2 = 0.71
  electrical conductivity: 2.06 ± 0.08 S/m
  viscosity: 9.09 ± 0.19 mPa·s
313.15 K, x2 = 0.783
  electrical conductivity: 1.72 ± 0.07 S/m
  viscosity: 8.83 ± 0.19 mPa·s
313.15 K, x2 = 0.843
  electrical conductivity: 1.41 ± 0.06 S/m
  viscosity: 8.81 ± 0.19 mPa·s
313.15 K, x2 = 0.894
  electrical conductivity: 1.03 ± 0.04 S/m
  viscosity: 8.95 ± 0.19 mPa·s
313.15 K, x2 = 0.934
  electrical conductivity: 0.69 ± 0.03 S/m
  viscosity: 9.2 ± 0.19 mPa·s
313.15 K, x2 = 0.97
  electrical conductivity: 0.339 ± 0.014 S/m
  viscosity: 9.4 ± 0.2 mPa·s
